Patent US20070281935A1, “Use” (PFIZER INC., priority 2004, published 2007)

Legend:
Assay type in all cases: in vivo
cows [1] = test: Liver triglyceride levels in transition cows (post-calving liver biopsies); conditions: all treatment regimens (0.5 mg/kg); Days 5, 10 and 14 postcalving
Experimental: (§1) To determine negative energy balance, serum concentrations of NEFAs or ketone bodies, or levels of triglycerides in liver tissues, are measured. Higher than ‘normal’ levels of NEFA's and/or triglycerides and/or ketone bodies are indicators of negative energy balance. Levels considered ‘higher than normal’ or ‘excessive’ are: • NEFA's >800 μmol/L in serum. • Triglycerides >10% w/w in liver tissue. • Ketone bodies […] in serum. Determination of Changes in Blood Non-Esterified Fatty Acid (NEFA) Concentrations and Liver Triglycerides Levels:
(§2) Compounds were administered once or several times in the transition period at dose levels predicted to be effective by comparing results of in-vitro receptor affinity tests in laboratory species and pharmacokinetic evaluations in cattle. NEFA levels were determined via standard laboratory methods, for example, using the commercial WAKO NEFA kit (Wako Chemical Co., USA, Dallas, Tex., 994-75409), and liver triglyceride content was determined using the method as described in the literature (J. K. Drackley, J. J. Veenhuizen, M. J. Richard and J. W. Young, J Dairy Sci, 1991, 74, 4254)). […]
(§3) As soon as possible post-calving (˜30 minutes) the cow was transferred to the freestall barn for the next scheduled milking (6:00 hrs and 19:00 hrs). […] Pre and post-calving NEFA samples were analyzed using the WAKO NEFA-C test kit (#994-75409). […]

cows [2] = test: Changes in blood non-esterified fatty acid (NEFA) concentrations in transition cows
Experimental: as §1, §2, §3

Holstein cows = test: Milk yield and milk quality study in pregnant, non-lactating Holstein cows; conditions: approximately 0.5 mg/kg subcutaneous on day of calving and day five post-calving
Experimental: Machines to assay for milk protein, fat, or lactose content are commercially available (MilkoScan™ 50, MilkoScan™ 4000, MilkoScan™ FT 6000 available from Foss Group). Machines to assay for somatic cell content are also commercially available (Fossomatic™ FC, Fossomatic™ Minor available from Foss Group).
One hundred twenty four pregnant, non-lactating Holstein cows were allocated to two treatment groups (placebo and COMPOUND at approximately 0.5 mg/kg). Animals were allowed to calve, treated by subcutaneous injection on the day of calving and on day five post-calving. Disease events and daily milk production were recorded for the following sixty days. The average daily milk yield in the treated cows was increased from 41.8 to 43.2 kg/day (p=0.052). There was also a significant beneficial effect on milk quality (increased protein and lactose yield, decreased somatic cell count). Results are shown in the FIG. 3 and FIG. 4, where COMPOUND represents Compound Z.

[3] = versus placebo, significant beneficial effect

CC(C)(Oc1cccc([C@@H]2CCCN(C(=O)OCc3ccc(C(F)(F)F)cc3)C2)c1)C(=O)O [Compound Z, (3S)-3-[3-(1-Carboxy-1-methyl-ethoxy)-phenyl]-piperidine-1-carboxylic acid 4-trifluoromethyl-benzyl ester]
liver triglyceride levels compared to placebo (cows [1]): significantly lowered
serum NEFA levels as compared to controls (cows [2]; all animals treated with Compound Z (T02, T03, T04; 0.5 mg/kg), from Day 1 (after calving) until Day 6 of the study): significantly lower
serum NEFA levels compared to controls (cows [2]; treatment group T03 (0.5 mg/kg at calving and post partum eod 4 doses), all timepoints): significantly lower
average daily milk yield (Holstein cows; sixty days recording, placebo 41.8, p=0.052): 43.2 kg/day
milk quality: lactose yield (Holstein cows; [3]): increased
milk quality: protein yield (Holstein cows; [3]): increased
milk quality: somatic cell count (Holstein cows; [3]): decreased
